Patent US12577227B2, “WDR5 inhibitors and modulators” (Vanderbilt University, priority 2019, dated 2026)

System: MV4:11 human cancer cell lines
Test: Cellular viability / anti-proliferative activity (CellTiter-Glo)
Format: cell-based
Settings: MV4-11, 120 h, MV-4-11 cells, 5 day protocol, mean of minimum two replicates, read-out: GI50 on cellular proliferation of MV4:11 human cancer cell lines
Protocol: Cellular Viability of Human Tumor Cell Lines
Anti-Proliferative Activity Using MLL-Harboring Cell Lines.
MV-4-11 and K562 cells are grown in IMDM media supplemented with 10% FBS and […], Molm-13 cells are cultured in RPMI-1640 media supplemented with 10% FBS and 1% o penicillin/streptomycin. Viability assays are performed by dispensing 200 cells at 7200 cells/mL into each well of an opaque 384-well plate and adding compounds at the indicated concentrations in a final volume of 32 μL and a final concentration of DMSO of 0.3% for all samples. A certain range of compound concentrations is made through a series of 2-fold dilutions starting 30 μM at the highest, total 22 dilutions. After a set incubation period, 5 day protocol, the viability of cells in each well is assessed using the CellTiter-Glo assay (Promega), read on a 96 Microplane Luminometer (Cytation 3, BioTek). Serial dilutions of each cell type are performed in all assays to generate standard curves and the final densities of cells are determined within the dynamic range of the instrument. GI50 values are calculated based on XLfit software (IDBS, Guildford, UK) with Sigmoidal Dose-Response Model. Each compound is tested in minimum of two replicates. Data are expressed as mean.

SMILES | GI50 [nM]
COc1cc(Cn2cnc3c(-c4ccc(F)cc4C)cc(Cn4ccoc4=N)cc3c2=O)cc(OC)c1 [Example 19, 3-(3,5-Dimethoxybenzyl)-8-(4-fluoro-2-methylphenyl)-6-((2-iminooxazol-3(2H)-yl)methyl)quinazolin-4(3H)-one] | 7980
COc1cc(Cn2cnc3c(-c4ccc(F)cc4C)cc(Cc4c[nH]c5ccccc45)cc3c2=O)cc(OC)c1 [Example 2, 6-((1H-Indol-3-yl)methyl)-3-(3,5-dimethoxybenzyl)-8-(4-fluoro-2-methylphenyl)quinazolin-4(3H)-one] | > 940
Cc1cc(C)nc(CN2CCOc3c(cc(Cn4ccnc4C)cc3-c3cccnc3C(F)(F)F)C2=O)c1 [Example 42, 4-((4,6-Dimethylpyridin-2-yl)methyl)-7-((2-methyl-1H-imidazol-1-yl)methyl)-9-(2-(trifluoromethyl)pyridin-3-yl)-3,4-dihydrobenzo[f][1,4]oxazepin-5(2H)-one] | 282
COc1cc(CN2CCOc3c(cc(CNc4ccccn4)cc3-c3ccc(F)cc3C)C2=O)cc(OC)c1 [Example 10, 4-(3,5-Dimethoxybenzyl)-9-(4-fluoro-2-methylphenyl)-7-((pyridin-2-ylamino)methyl)-3,4-dihydrobenzo[f][1,4]oxazepin-5(2H)-one] | > 940
CCc1cc(C(=O)NC)c2nccc(N3CCOc4c(cc(Cn5ccnc5)cc4-c4cn(C)nc4C(F)(F)F)C3=O)c2c1 [Example 72, 4-(7-((1H-imidazol-1-yl)methyl)-9-(1-methyl-3-(trifluoromethyl)-1H-pyrazol-4-yl)-5-oxo-2,3-dihydrobenzo[f][1,4]oxazepin-4(5H)-yl)-6-ethyl-N-methylquinoline-8-carboxamide] | 494
CCn1cc(-c2cc(Cn3ccnc3)cc3c(=O)n([C@H](c4cc(OC)ccn4)C4CC4)cnc23)c(C(F)(F)F)n1 [Example 62, (S)-6-((1H-imidazol-1-yl)methyl)-3-(cyclopropyl(4-methoxypyridin-2-yl)methyl)-8-(1-ethyl-3-(trifluoromethyl)-1H-pyrazol-4-yl)quinazolin-4(3H)-one] | 1380
Cn1cc(-c2cc(Cn3ccn(C)c3=N)cc3c(=O)n(-c4ccccc4-c4ccccc4)cnc23)c(C(F)(F)F)n1 [Example 24, 3-([1,1′-Biphenyl]-2-yl)-6-((2-imino-3-methyl-2,3-dihydro-1H-imidazol-1-yl)methyl)-8-(1-methyl-3-(trifluoromethyl)-1H-pyrazol-4-yl)quinazolin-4(3H)-one] | 9010
COc1cnc2cccc(N3CCOc4c(cc(Cn5ccnc5)cc4-c4cn(C)nc4C(F)(F)F)C3=O)c2c1 [Example 70, 7-((1H-imidazol-1-yl)methyl)-4-(3-methoxyquinolin-5-yl)-9-(1-methyl-3-(trifluoromethyl)-1H-pyrazol-4-yl)-3,4-dihydrobenzo[f][1,4]oxazepin-5(2H)-one] | 306
COc1cc(CN2C[C@@H](C)Oc3c(cc(Cn4ccnc4C)cc3-c3ccc(F)cc3C)C2=O)cc(OC)c1 [Example 34, (R)-4-(3,5-Dimethoxybenzyl)-9-(4-fluoro-2-methylphenyl)-2-methyl-7-((2-methyl-1H-imidazol-1-yl)methyl)-3,4-dihydrobenzo[f][1,4]oxazepin-5(2H)-one] | 1470
CCc1nccn1Cc1cc2c(c(-c3cn(C)nc3C(F)(F)F)c1)OCCN(Cc1cc(C)cc(C)n1)C2=O [Example 38, 4-((4,6-Dimethylpyridin-2-yl)methyl)-7-((2-ethyl-1H-imidazol-1-yl)methyl)-9-(1-methyl-3-(trifluoromethyl)-1H-pyrazol-4-yl)-3,4-dihydrobenzo[f][1,4]oxazepin-5(2H)-one] | 262
Cc1ccnc(CN2CCOc3c(cc(Cn4cnn(C)c4=N)cc3-c3cn(C)nc3C(F)(F)F)C2=O)c1 [Example 32, 7-((5-imino-1-methyl-1,5-dihydro-4H-1,2,4-triazol-4-yl)methyl)-9-(1-methyl-3-(trifluoromethyl)-1H-pyrazol-4-yl)-4-((4-methylpyridin-2-yl)methyl)-3,4-dihydrobenzo[f][1,4]oxazepin-5(2H)-one] | 775
Cc1cc(C)nc(CN2CCOc3c(cc(Cn4ccnc4C)cc3-c3scnc3C)C2=O)c1 [Example 46, 4-((4,6-Dimethylpyridin-2-yl)methyl)-7-((2-methyl-1H-imidazol-1-yl)methyl)-9-(4-methylthiazol-5-yl)-3,4-dihydrobenzo[f][1,4]oxazepin-5(2H)-one] | 703

Stronger by GI50, values ahead:

GI50 [nM] | SMILES
12 | COc1ccnc(CN2CCOc3c(cc(Cn4ccn(C)c4=N)cc3-c3ccc(F)cc3C)C2=O)c1 [Example 13, 9-(4-Fluoro-2-methylphenyl)-7-((2-imino-3-methyl-2,3-dihydro-1H-imidazol-1-yl)methyl)-4-((4-methoxypyridin-2-yl)methyl)-3,4-dihydrobenzo[f][1,4]oxazepin-5(2H)-one]
50 | COc1ccnc([C@H](C)N2CCOc3c(cc(Cn4ccnc4C)cc3-c3ccc(F)cc3C)C2=O)c1 [Example 50, (S)-9-(4-Fluoro-2-methylphenyl)-4-(1-(4-methoxypyridin-2-yl)ethyl)-7-((2-methyl-1H-imidazol-1-yl)methyl)-3,4-dihydrobenzo[f][1,4]oxazepin-5(2H)-one]
135 | Cc1cc(C)nc(CN2CCOc3c(cc(Cn4ccnc4C)cc3-c3cn(C)nc3C(F)(F)F)C2=O)c1 [Example 26, 4-((4,6-Dimethylpyridin-2-yl)methyl)-7-((2-methyl-1H-imidazol-1-yl)methyl)-9-(1-methyl-3-(trifluoromethyl)-1H-pyrazol-4-yl)-3,4-dihydrobenzo[f][1,4]oxazepin-5(2H)-one]
159 | Cc1cc(C)nc(CN2CCOc3c(cc(Cn4ccnc4C)cc3-c3sc(C)nc3C)C2=O)c1 [Example 43, 4-((4,6-Dimethylpyridin-2-yl)methyl)-9-(2,4-dimethylthiazol-5-yl)-7-((2-methyl-1H-imidazol-1-yl)methyl)-3,4-dihydrobenzo[f][1,4]oxazepin-5(2H)-one]
192 | Cc1ccnc(CN2CCOc3c(cc(Cn4ccnc4C)cc3-c3cn(C)nc3C(F)(F)F)C2=O)c1 [Example 27, 7-((2-Methyl-1H-imidazol-1-yl)methyl)-9-(1-methyl-3-(trifluoromethyl)-1H-pyrazol-4-yl)-4-((4-methylpyridin-2-yl)methyl)-3,4-dihydrobenzo[f][1,4]oxazepin-5(2H)-one]
38 | COc1cc(CN2CCNc3c(cc(Cn4ccn(C)c4=N)cc3-c3ccc(F)cc3C)C2=O)cc(OC)c1 [Example 29, 4-(3,5-Dimethoxybenzyl)-9-(4-fluoro-2-methylphenyl)-7-((2-imino-3-methyl-2,3-dihydro-1H-imidazol-1-yl)methyl)-1,2,3,4-tetrahydro-5H-benzo[e][1,4]diazepin-5-one]
67 | COc1ccnc([C@H](C)N2CCOc3c(cc(Cn4cnn(C)c4=N)cc3-c3cn(C)nc3C(F)(F)F)C2=O)c1 [Example 53, (S)-7-((5-Imino-1-methyl-1,5-dihydro-4H-1,2,4-triazol-4-yl)methyl)-4-(1-(4-methoxypyridin-2-yl)ethyl)-9-(1-methyl-3-(trifluoromethyl)-1H-pyrazol-4-yl)-3,4-dihydrobenzo[f][1,4]oxazepin-5(2H)-one]
79 | Cc1cc(C)nc(CN2CCOc3c(cc(Cn4ccnc4C)cc3-c3cc(C)c(F)cc3C)C2=O)c1 [Example 51, 4-((4,6-Dimethylpyridin-2-yl)methyl)-9-(4-fluoro-2,5-dimethylphenyl)-7-((2-methyl-1H-imidazol-1-yl)methyl)-3,4-dihydrobenzo[f][1,4]oxazepin-5(2H)-one]
108 | CCn1cc(-c2cc(Cn3ccnc3)cc3c2OCCN([C@H](c2cc(OC)ccn2)C2CC2)C3=O)c(C(F)(F)F)n1 [Example 59, (S)-7-((1H-Imidazol-1-yl)methyl)-4-(cyclopropyl(4-methoxypyridin-2-yl)methyl)-9-(1-ethyl-3-(trifluoromethyl)-1H-pyrazol-4-yl)-3,4-dihydrobenzo[f][1,4]oxazepin-5(2H)-one]
130 | COc1cc(CN2C[C@@H](C)Oc3c(cc(Cn4ccn(C)c4=N)cc3-c3ccc(F)cc3C)C2=O)cc(OC)c1 [Example 33, (R)-4-(3,5-dimethoxybenzyl)-9-(4-fluoro-2-methylphenyl)-7-((2-imino-3-methyl-2,3-dihydro-1H-imidazol-1-yl)methyl)-2-methyl-3,4-dihydrobenzo[f][1,4]oxazepin-5(2H)-one]
100 | COc1ccc2nc(C)cc(N3CCOc4c(cc(Cn5ccnc5)cc4-c4cn(C)nc4C(F)(F)F)C3=O)c2c1 [Example 68, 7-((1H-imidazol-1-yl)methyl)-4-(6-methoxy-2-methylquinolin-4-yl)-9-(1-methyl-3-(trifluoromethyl)-1H-pyrazol-4-yl)-3,4-dihydrobenzo[f][1,4]oxazepin-5(2H)-one]
19 | COc1cc(CN2CCOc3c(cc(Cn4ccn(C)c4=N)cc3-c3ccc(F)cc3C)C2=O)cc(OC)c1 [Example 3, 4-(3,5-Dimethoxybenzyl)-9-(4-fluoro-2-methylphenyl)-7-((2-imino-3-methyl-2,3-dihydro-1H-imidazol-1-yl)methyl)-3,4-dihydrobenzo[f][1,4]oxazepin-5(2H)-one]
70 | CCn1cc(-c2cc(Cn3ccnc3)cc3c2OCCN([C@H]2CCOc4ccc(OC)cc42)C3=O)c(C(F)(F)F)n1 [Example 63, (S)-7-((1H-imidazol-1-yl)methyl)-9-(1-ethyl-3-(trifluoromethyl)-1H-pyrazol-4-yl)-4-(6-methoxychroman-4-yl)-3,4-dihydrobenzo[f][1,4]oxazepin-5(2H)-one]
